Source: patent US11753408B2, “Compounds and method for blocking transmission of malarial parasite” (The United States of America, as represented by the …, priority 2016, dated 2023)

How the values were obtained:
mTOR = mTOR (Homo sapiens, UniProt P42345); experiment: mTOR activity (no method described); assay type: biochemical
[1] = Microsomal stability (rat); assay type: in vitro ADME; details: rat microsomes
[2] = test system: Asexual parasites of P. falciparum strain 3D7; experiment: In vitro drug activity on asexual parasites (SYBR Green assay); assay type: cell-based, Plasmodium falciparum
How it was run: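 3D7 parasites at 0.5% parasitemia and 2% hematocrit were exposed to drugs (DMSO ≤0.5%) for 72 h under standard culture conditions, in duplicate. After freeze-thaw lysis, SYBR Green I lysis buffer was added for 30 min at room temperature, and fluorescence was read at 490/520 nm.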

Solubility at pH 7.4 = assay type: physicochemical
PAMPA permeability = assay type: in vitro ADME
[3] = test system: Stage III-V gametocytes (blood stage P. falciparum parasites); experiment: In vitro drug activity on gametocytes (AlamarBlue viability assay); assay type: cell-based, Plasmodium falciparum; details: read-out: Gametocyte EC50
How it was run: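 P. falciparum 3D7 stage III–V gametocytes (also HB3, Dd2), enriched by 50 mM N-acetylglucosamine and Percoll gradient, seeded at 20,000/well with compound for 72 h at 37° C, 5% CO2. AlamarBlue then added for 24 h; viability read as fluorescence (Ex 525, Em 598 nm).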

In the case of `NC1(c2ccc(-c3ccc4ncc5ccc(=O)n(-c6ccc(C(=O)N7CCOCC7)cc6)c5c4c3)cc2)CCC1` [Compound 181], the mTOR (mTOR) is reported as 830.4 nM, the “Microsomal Stability (rat) T1/2” value [1] is reported as over 30 min and the EC50 [2] is reported as 1580 nM. For the same compound, the “Sol @ pH 7.4” value (Solubility at pH 7.4) was 17.3 ug/mL, the PAMPA Permeability (PAMPA permeability) was 36.3 ×10⁻⁶ cm/s and the EC50 [3] was 1920 nM.
For `NCCc1ccc(-c2ccc3ncc4ccc(=O)n(-c5ccc(C(=O)N6CCOCC6)cc5)c4c3c2)cc1` [Compound 183], the mTOR (mTOR) was 794.5 nM, the “Microsomal Stability (rat) T1/2” value [1] was over 30 min and the EC50 [2] was 49.8 nM. The “Sol @ pH 7.4” value (Solubility at pH 7.4) was 28.4 ug/mL, the PAMPA Permeability (PAMPA permeability) was under 1 ×10⁻⁶ cm/s and the EC50 [3] was 131 nM.
With `O=C(c1ccc(-n2c(=O)ccc3cnc4ccc(-c5ccc(CN6CCCC6)cc5)cc4c32)cc1)N1CCOCC1` [Compound 184] the mTOR (mTOR) was 18050 nM, the “Microsomal Stability (rat) T1/2” value [1] was over 30 min and the EC50 [2] was 171 nM. The “Sol @ pH 7.4” value (Solubility at pH 7.4) was 56.1 ug/mL, the PAMPA Permeability (PAMPA permeability) was 292 ×10⁻⁶ cm/s and the EC50 [3] was 821 nM.
For `O=C(c1ccc(-n2c(=O)ccc3cnc4ccc(-c5ccc(CN6CCOCC6)cc5)cc4c32)cc1)N1CCOCC1` [Compound 185], the mTOR (mTOR) was 50000 nM, the “Microsomal Stability (rat) T1/2” value [1] was 15.1 min and the EC50 [2] was 352 nM. The “Sol @ pH 7.4” value (Solubility at pH 7.4) was 3.4 ug/mL, the PAMPA Permeability (PAMPA permeability) was 35.5 ×10⁻⁶ cm/s and the EC50 [3] was 1140 nM.
In the case of `CN(C)C(=O)c1cccc(-n2c(=O)ccc3cnc4ccc(-c5ccc(N)nc5)cc4c32)c1` [Compound 332], the mTOR (mTOR) is reported as 494.9 nM, the “Microsomal Stability (rat) T1/2” value [1] is reported as over 30.0 min and the EC50 [2] is reported as 859 nM. For the same compound, the “Sol @ pH 7.4” value (Solubility at pH 7.4) was over 64.0 ug/mL, the PAMPA Permeability (PAMPA permeability) was 31.9 ×10⁻⁶ cm/s and the EC50 [3] was 1520 nM.
In the case of `Nc1ccc(-c2ccc3ncc4ccc(=O)n(-c5ccc(C(=O)N6CCOCC6)cc5)c4c3c2)cn1` [Compound 334], the mTOR (mTOR) is reported as 88.72 nM, the “Microsomal Stability (rat) T1/2” value [1] is reported as over 30.0 min and the EC50 [2] is reported as 8.21 nM. The “Sol @ pH 7.4” value (Solubility at pH 7.4) was 30 ug/mL, the PAMPA Permeability (PAMPA permeability) was 14.9 ×10⁻⁶ cm/s and the EC50 [3] was 19.7 nM.
In the case of `CNC(=O)c1ccc(-n2c(=O)ccc3cnc4ccc(-c5ccc(N)nc5)cc4c32)cc1` [Compound 335], the mTOR (mTOR) is reported as 28.21 nM, the “Microsomal Stability (rat) T1/2” value [1] is reported as over 30.0 min and the EC50 [2] is reported as 14.4 nM. The “Sol @ pH 7.4” value (Solubility at pH 7.4) was 2.8 ug/mL, the PAMPA Permeability (PAMPA permeability) was under 2.2 ×10⁻⁶ cm/s and the EC50 [3] was 17.7 nM.
With `NC(=O)c1ccc(-n2c(=O)ccc3cnc4ccc(-c5ccc(N)nc5)cc4c32)cc1` [Compound 336] the mTOR (mTOR) was 19.71 nM, the “Microsomal Stability (rat) T1/2” value [1] was over 30.0 min and the EC50 [2] was 10.2 nM. The “Sol @ pH 7.4” value (Solubility at pH 7.4) was under 1.0 ug/mL, the PAMPA Permeability (PAMPA permeability) was under 3.6 ×10⁻⁶ cm/s and the EC50 [3] was 41 nM.
With `Cc1ccc(C#N)cc1-n1c(=O)n(C)c2cnc3ccc(-c4ccc(Cl)cc4)cc3c21` [Compound 400] the mTOR (mTOR) was 100000 nM, the “Microsomal Stability (rat) T1/2” value [1] was over 30.0 min and the EC50 [2] was 165 nM. The “Sol @ pH 7.4” value (Solubility at pH 7.4) was under 1.0 ug/mL, the PAMPA Permeability (PAMPA permeability) was 1460 ×10⁻⁶ cm/s and the EC50 [3] was 294 nM.
In the case of `Cn1c(=O)n(-c2cccc(C#N)c2)c2c3cc(-c4cccc(C#N)c4)ccc3ncc21` [Compound 401], the mTOR (mTOR) is reported as 1271 nM, the “Microsomal Stability (rat) T1/2” value [1] is reported as over 30.0 min and the EC50 [2] is reported as 86.7 nM. The “Sol @ pH 7.4” value (Solubility at pH 7.4) was under 1.0 ug/mL, the PAMPA Permeability (PAMPA permeability) was 297 ×10⁻⁶ cm/s and the EC50 [3] was 190 nM.
For `Cn1c(=O)n(-c2cccc(C#N)c2)c2c3cc(-c4ccc(F)cc4)ccc3ncc21` [Compound 402], the mTOR (mTOR) was 53210 nM, the “Microsomal Stability (rat) T1/2” value [1] was over 30.0 min and the EC50 [2] was 140 nM. For the same compound, the “Sol @ pH 7.4” value (Solubility at pH 7.4) was 1.9 ug/mL, the PAMPA Permeability (PAMPA permeability) was 223 ×10⁻⁶ cm/s and the EC50 [3] was 343 nM.
With `N#Cc1cccc(-n2c(=O)n(CCO)c3cnc4ccc(-c5ccc(Cl)cc5)cc4c32)c1` [Compound 404] the mTOR (mTOR) was 50000 nM, the “Microsomal Stability (rat) T1/2” value [1] was over 30.0 min and the EC50 [2] was 681 nM. The “Sol @ pH 7.4” value (Solubility at pH 7.4) was 0.9 ug/mL, the PAMPA Permeability (PAMPA permeability) was 19.5 ×10⁻⁶ cm/s and the EC50 [3] was 1640 nM.
In the case of `CN(C)Cc1ccc(-c2ccc3ncc4c(c3c2)n(-c2cccc(C#N)c2)c(=O)n4C)cc1` [Compound 436], the mTOR (mTOR) is reported as 12450 nM, the “Microsomal Stability (rat) T1/2” value [1] is reported as over 30.0 min and the EC50 [2] is reported as 892 nM. The “Sol @ pH 7.4” value (Solubility at pH 7.4) was 52.9 ug/mL, the PAMPA Permeability (PAMPA permeability) was 767 ×10⁻⁶ cm/s and the EC50 [3] was 1970 nM.
In the case of `Cc1ccc(-c2ccc3ncc4c(c3c2)n(-c2cccc(C#N)c2)c(=O)n4C)cc1` [Compound 438], the mTOR (mTOR) is reported as 100000 nM, the “Microsomal Stability (rat) T1/2” value [1] is reported as 27.2 min and the EC50 [2] is reported as 174 nM. The “Sol @ pH 7.4” value (Solubility at pH 7.4) was under 1.0 ug/mL, the PAMPA Permeability (PAMPA permeability) was under 1 ×10⁻⁶ cm/s and the EC50 [3] was 169 nM.
In the case of `Cn1c(=O)n(-c2cccc(C#N)c2)c2c3cc(-c4ccc(N)cc4)ccc3ncc21` [Compound 439], the mTOR (mTOR) is reported as 714.1 nM, the “Microsomal Stability (rat) T1/2” value [1] is reported as over 30.0 min and the EC50 [2] is reported as 37.9 nM. For the same compound, the “Sol @ pH 7.4” value (Solubility at pH 7.4) was 1.4 ug/mL, the PAMPA Permeability (PAMPA permeability) was 18.4 ×10⁻⁶ cm/s and the EC50 [3] was 844 nM.
In the case of `Cn1c(=O)n(-c2cccc(C#N)c2)c2c3cc(-c4ccc(Cl)c(O)c4)ccc3ncc21` [Compound 441], the mTOR (mTOR) is reported as 516.2 nM, the “Microsomal Stability (rat) T1/2” value [1] is reported as over 30.0 min and the EC50 [2] is reported as 319 nM. The “Sol @ pH 7.4” value (Solubility at pH 7.4) was under 1.0 ug/mL, the PAMPA Permeability (PAMPA permeability) was under 1 ×10⁻⁶ cm/s and the EC50 [3] was 686 nM.
With `CC(O)c1ccc(-c2ccc3ncc4c(c3c2)n(-c2cccc(C#N)c2)c(=O)n4C)cc1` (stereo not drawn) [Compound 443] the mTOR (mTOR) was 302.4 nM, the “Microsomal Stability (rat) T1/2” value [1] was over 30.0 min and the EC50 [2] was 44.5 nM. The “Sol @ pH 7.4” value (Solubility at pH 7.4) was 3.3 ug/mL, the PAMPA Permeability (PAMPA permeability) was 645 ×10⁻⁶ cm/s and the EC50 [3] was 68.3 nM.
For `Cn1c(=O)n(-c2cccc(C#N)c2)c2c3cc(-c4cccc(O)c4)ccc3ncc21` [Compound 444], the mTOR (mTOR) was 427.8 nM, the “Microsomal Stability (rat) T1/2” value [1] was 12.8 min and the EC50 [2] was 106 nM. The “Sol @ pH 7.4” value (Solubility at pH 7.4) was under 1.0 ug/mL, the PAMPA Permeability (PAMPA permeability) was 407 ×10⁻⁶ cm/s and the EC50 [3] was 280 nM.
